Source: ChEMBL document CHEMBL5214935, “Discovery of a potent M5 antagonist with improved clearance profile. Part 1: Piperidine amide-based antagonists” (Bioorg Med Chem Lett, 2022)
Residue numbers refer to the chain shown, from its start.

What was measured:
[1] = Intrinsic clearance in human; assay type: ADME
[2] = Intrinsic clearance in rat; assay type: ADME
[3] = target: T1, Muscarinic acetylcholine receptor M1 (Rattus norvegicus) (UniProt P08482); assay: Antagonist activity at rat muscarinic M1 receptor expressed in CHO cells assessed as minimal acetylcholine response by calcium mobilisation assay relative to control; assay type: functional, cell-based; design: scale not given: the % may be the effect or the level left; conditions: filed as antagonist
T1 sequence (whole entry): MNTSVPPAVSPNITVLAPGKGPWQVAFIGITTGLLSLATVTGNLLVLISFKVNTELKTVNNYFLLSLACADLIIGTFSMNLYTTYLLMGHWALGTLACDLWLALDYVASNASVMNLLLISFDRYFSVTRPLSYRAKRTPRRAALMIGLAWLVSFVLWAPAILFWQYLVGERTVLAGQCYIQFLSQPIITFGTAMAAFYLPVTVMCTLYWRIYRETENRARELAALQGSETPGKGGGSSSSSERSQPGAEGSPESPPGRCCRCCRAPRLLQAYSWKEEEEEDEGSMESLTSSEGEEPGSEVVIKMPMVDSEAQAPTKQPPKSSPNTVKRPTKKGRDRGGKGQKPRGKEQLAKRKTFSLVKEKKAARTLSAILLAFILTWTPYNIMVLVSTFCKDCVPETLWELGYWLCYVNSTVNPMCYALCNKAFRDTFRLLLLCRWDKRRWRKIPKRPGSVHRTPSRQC

[4] = target: T2, Muscarinic acetylcholine receptor M5 (Homo sapiens, UniProt P08912); assay: Antagonist activity at human muscarinic M5 receptor expressed in CHO cells in the presence of acetylcholine by calcium mobilisation assay; assay type: functional, cell-based
T2 sequence (P08912 whole entry): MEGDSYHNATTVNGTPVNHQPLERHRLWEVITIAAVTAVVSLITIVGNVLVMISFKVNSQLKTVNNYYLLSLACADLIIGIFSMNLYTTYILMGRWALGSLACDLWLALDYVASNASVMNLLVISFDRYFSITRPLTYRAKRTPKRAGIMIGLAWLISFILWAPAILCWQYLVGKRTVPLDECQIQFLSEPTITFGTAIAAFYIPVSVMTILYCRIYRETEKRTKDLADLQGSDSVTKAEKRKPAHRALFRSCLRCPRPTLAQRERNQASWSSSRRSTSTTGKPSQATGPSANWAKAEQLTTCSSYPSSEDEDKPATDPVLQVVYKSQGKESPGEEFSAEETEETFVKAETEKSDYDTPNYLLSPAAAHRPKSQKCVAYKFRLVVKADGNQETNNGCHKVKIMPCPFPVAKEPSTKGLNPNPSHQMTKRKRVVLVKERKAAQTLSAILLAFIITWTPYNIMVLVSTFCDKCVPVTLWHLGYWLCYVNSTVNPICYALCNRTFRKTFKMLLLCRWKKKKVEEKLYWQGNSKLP

[5] = Unbound fraction in human plasma; assay type: ADME, cell-free
[6] = target: T3, Muscarinic acetylcholine receptor M5 (Homo sapiens) (UniProt P08912); assay: Antagonist activity at human muscarinic M5 receptor expressed in CHO cells assessed as minimal acetylcholine response by calcium mobilisation assay relative to control; assay type: functional, cell-based; design: concentration or dose not given beside the values
T3 sequence (whole entry): T2 sequence (P08912 whole entry)

[7] = Unbound fraction in rat brain; assay type: ADME, tissue-based
[8] = Unbound fraction in rat plasma; assay type: ADME, cell-free
[9] = target: T4, Muscarinic acetylcholine receptor M1 (Rattus norvegicus, UniProt P08482); assay: Antagonist activity at rat muscarinic M1 receptor expressed in CHO cells in the presence of acetylcholine by calcium mobilisation assay; assay type: functional, cell-based
T4 sequence (P08482 whole entry): T1 sequence (whole entry)

[10] = target: T5, Muscarinic acetylcholine receptor M1 (Homo sapiens, UniProt P11229); assay: Antagonist activity at human muscarinic M1 receptor; assay type: functional
T5 sequence (P11229 whole entry): T1 sequence (whole entry) with V5A, S254T, S309P, K320R, G337A, V413I

[11] = target: T6, Muscarinic acetylcholine receptor M5 (Rattus norvegicus, UniProt P08911); assay: Antagonist activity at rat muscarinic M5 receptor; assay type: functional
T6 sequence (P08911 whole entry): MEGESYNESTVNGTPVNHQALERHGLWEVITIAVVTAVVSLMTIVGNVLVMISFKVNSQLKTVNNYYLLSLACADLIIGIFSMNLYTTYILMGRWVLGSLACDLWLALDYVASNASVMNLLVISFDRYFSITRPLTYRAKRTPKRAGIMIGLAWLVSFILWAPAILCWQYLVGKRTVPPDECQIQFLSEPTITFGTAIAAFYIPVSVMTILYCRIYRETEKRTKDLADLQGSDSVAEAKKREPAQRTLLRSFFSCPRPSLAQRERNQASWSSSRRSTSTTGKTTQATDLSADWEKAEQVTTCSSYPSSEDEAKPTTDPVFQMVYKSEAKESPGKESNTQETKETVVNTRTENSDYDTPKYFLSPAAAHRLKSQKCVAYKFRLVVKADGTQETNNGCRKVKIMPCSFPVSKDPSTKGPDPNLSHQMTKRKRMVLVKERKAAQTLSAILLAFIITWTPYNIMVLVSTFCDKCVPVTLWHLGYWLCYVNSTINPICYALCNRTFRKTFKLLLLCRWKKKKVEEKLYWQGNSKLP

[12] = target: T5, Muscarinic acetylcholine receptor M1; assay: Antagonist activity at human muscarinic M1 receptor expressed in CHO cells in the presence of acetylcholine by calcium mobilisation assay; assay type: functional, cell-based
[13] = Apparent permeability in MDCK-MDR1 cells; assay type: ADME, cell-based, Canis lupus familiaris; conditions: dog
[14] = test system: P-glycoprotein (human); assay: Efflux ratio of permeability in MDCK-MDR1 cells expressing human P-glycoprotein; assay type: ADME, cell-based, Canis lupus familiaris; conditions: dog
[15] = target: T7, Muscarinic acetylcholine receptor M5 (Rattus norvegicus) (UniProt P08911); assay: Antagonist activity at rat muscarinic M5 receptor assessed as minimal acetylcholine response relative to control; assay type: functional; design: scale not given: the % may be the effect or the level left; conditions: filed as antagonist
T7 sequence (whole entry): T6 sequence (P08911 whole entry)

[16] = target: T8, Muscarinic acetylcholine receptor M1 (Homo sapiens) (UniProt P11229); assay: Antagonist activity at human muscarinic M1 receptor expressed in CHO cells assessed as minimal acetylcholine response by calcium mobilisation assay; assay type: functional, cell-based; design: scale not given: the % may be the effect or the level left
T8 sequence (whole entry): T1 sequence (whole entry) with V5A, S254T, S309P, K320R, G337A, V413I

[17] = Elimination half life in rat; assay type: ADME; conditions: in vivo, read-out: beta t1/2
[18] = Volume of distribution at steady state in rat; assay type: ADME; conditions: in vivo, read-out: Vdss
[19] = Clearance in rat plasma; assay type: ADME, cell-free

Structure (SMILES) | CLint scaled [1] [mL/min/kg] | CLint scaled [2] [mL/min/kg] | IC50 [4] [nM] | Activity ([6]; filed as antagonist) [%] | other results
Cn1ncc(S(=O)(=O)N2CC[C@H](C(=O)Nc3ccc4scnc4c3)[C@@H](F)C2)c1Cl (racemic) | 6 | 49 | 10 | 2 | Activity [3]: 3%; Fu [5]: 0.02; fraction unbound [7]: 0.05; Fu [8]: 0.005; IC50 [9]: 110 nM
O=C(Nc1ccc2scnc2c1)C1CCN(S(=O)(=O)c2ccc(Cl)nc2)CC1 | 21 | 62 | 168 | 3 | –
Cc1ncc(S(=O)(=O)N2CC[C@H](C(=O)Nc3ccc4scnc4c3)[C@@H](F)C2)s1 (racemic) | 6 | 81 | 13 | 2 | Activity [3]: 3%; Fu [5]: 0.02; fraction unbound [7]: 0.06; Fu [8]: 0.007; IC50 [9]: 300 nM
Cc1nc2cc(NC(=O)C3CCN(S(=O)(=O)c4ccc5c(c4)CCO5)CC3)ccc2s1 | 74 | 426 | 594 | 19 | –
Cc1ccc(S(=O)(=O)N2CCC(C(=O)Nc3ccc4scnc4c3)CC2)cn1 | 5 | 43 | – | 3 | –
C[C@@H]1C[C@H](C(=O)Nc2ccc3scnc3c2)CCN1S(=O)(=O)c1ccc2c(c1)CCO2 (racemic) | 264 | 572 | 134 | 2 | –
CC1COc2ccc(S(=O)(=O)N3CCC(C(=O)Nc4ccc5scnc5c4)CC3)cc21 (racemic) | 263 | 1020 | 109 | 3 | –
C[C@@H]1C[C@@H](C(=O)Nc2ccc3scnc3c2)CCN1S(=O)(=O)c1ccc2c(c1)CCO2 (racemic) | 114 | 520 | 94 | 3 | –
O=C(Nc1ccc2scnc2c1)C1CCN(S(=O)(=O)c2ccc(Cl)s2)CC1 | – | – | 2800 | – | IC50 [10]: > 10000 nM
O=C(Nc1ccc2scnc2c1)C1CCN(S(=O)(=O)c2cccnc2)CC1 | 19 | 207 | 59 | 2 | –
O=C(Nc1ccc2scnc2c1)C1CCN(S(=O)(=O)c2ccc3ncccc3c2)CC1 | 20 | 212 | – | 2 | –
C[C@@H]1CN(S(=O)(=O)c2ccc3c(c2)CCO3)CC[C@@H]1C(=O)Nc1ccc2scnc2c1 (racemic) | 199 | 550 | 419 | 3 | –
O=C(Nc1ccc2cccnc2c1)C1CCN(S(=O)(=O)c2ccc3c(c2)CCO3)CC1 | 99 | 740 | – | 3 | –
CC1Cc2cc(S(=O)(=O)N3CCC(C(=O)Nc4ccc5scnc5c4)CC3)ccc2O1 (racemic) | – | – | > 10000 | 16 | –
C[C@H]1CN(S(=O)(=O)c2ccc3c(c2)CCO3)CC[C@@H]1C(=O)Nc1ccc2scnc2c1 (racemic) | 79 | 506 | 1530 | 3 | –
Cc1nn(C)cc1S(=O)(=O)N1CC[C@H](C(=O)Nc2ccc3scnc3c2)[C@@H](F)C1 (racemic) | 7 | 260 | 309 | 3 | IC50 [11]: 572 nM; IC50 [12]: > 10000 nM; Papp [13]: 0.431 10^-6 cm/s; Fu [5]: 0.26; efflux ratio [14]: 110; fraction unbound [7]: 0.17; Activity [15]: 3%; Fu [8]: 0.02; Activity [16]: 51%
CN(C(=O)C1CCN(S(=O)(=O)c2ccc3c(c2)CCO3)CC1)c1ccc2scnc2c1 | – | – | – | – | Activity [6]: 51%
O=C(Nc1ccc2snnc2c1)C1CCN(S(=O)(=O)c2ccc3c(c2)CCO3)CC1 | 108 | 804 | 143 | 10 | –
O=C(Nc1ccc2scnc2c1)C1CCN(S(=O)(=O)c2ccc3c(c2)CCO3)CC1 | – | 373 | – | – | IC50 [11]: 249 nM; IC50 [10]: 2140 nM
Cc1nn(C)cc1S(=O)(=O)N1CCC(C(=O)Nc2ccc3scnc3c2)CC1 | 5 | 45 | – | 2 | Activity [3]: 35%; half-life [17]: 1.43 h; IC50 [11]: 1330 nM; IC50 [12]: > 10000 nM; Papp [13]: 0.374 10^-6 cm/s; Vd [18]: 0.61 L/kg; Fu [5]: 0.14; clearance [19]: 11.1 mL/min/kg; efflux ratio [14]: 110; fraction unbound [7]: 0.2; Activity [15]: 4%; Fu [8]: 0.03; Activity [16]: 50%; IC50 [9]: > 10000 nM
O=C(Nc1ccc2scnc2c1)C1CCN(S(=O)(=O)c2ccc3ncsc3c2)CC1 | 36 | 81 | 266 | 2 | –
